Reference: patent US20160339022A1, “TREATMENT OF NEUROBLASTOMA WITH HISTONE DEACETYLASE INHIBITORS” (Acetylon Pharmaceuticals Inc., priority 2015, published 2016)

Legend:
neuroblastoma cells [1] = assay: Long term growth assay (15, 20, 25 days, Crystal Violet); assay type: cell-based
Protocol: Cells were cultured for 15, 20 or 25 days with the indicated treatments. Cells were imaged on an inverted microscope at days 15 and 20. On day 25, the cells were stained with Crystal Violet dye and imaged by cell phone camera Importantly, the combination of ATRA and Compound B suppressed the growth of ATRA-resistant colonies.
Cells were cultured for 15, 20 or 25 days with the indicated treatments. Cells were imaged on an inverted microscope at days 15 and 20. On day 25, the cells were stained with Crystal Violet dye and imaged.
Cells were cultured for 15, 20 or 25 days with the indicated treatments. Cells were imaged on an inverted microscope at days 15 and 20. On day 25, the cells were stained with Crystal Violet dye and imaged. It was observed that the combination activity is mediated by HDAC1/2i.
Neuroblastoma cells were treated with Compound B or the HDAC3-selective inhibitor Compound C in a long term growth assay.

neuroblastoma cells [2] = assay: Neuroblastoma proliferation, manual cell counts over 7 days; assay type: cell-based; details: 1 μM and 3 μM, counted at days 3, 5 and 7
Protocol: Cells were cultured over a 7 day period and manually counted at days 3, 5, and 7.

NF-M = NF-M staining by fluorescent microscopy; assay type: cell-based; details: 7 days on glass slides
Protocol: Cells were cultured for 7 days with the indicated treatments on glass slides. Cells were fixed and stained with antibodies for NF-M and nucleus. Images were captured on a fluorescent microscope.

SK-N-BE2 cells = assay: Levels of proteins related to cell-cycle progression; assay type: cell-based; details: 3 days in culture
Protocol: The levels of proteins related to cell-cycle progression were assessed following treatment (SK-N-BE2 cells; 3 days in culture) with DMSO (control), Compound B alone, ATRA alone, and Compound B in combination with ATRA. p21 is increased by ATRA and enhanced by Compound B. Cyclin D1 is decreased in the combination setting relative to ATRA as a single agent. CDK2 and CDK4 are decreased in the combination setting with Compound B and ATRA.

SK-N-BE(2) cells [3] = assay: Microarray gene expression and gene set enrichment analysis; assay type: cell-based, Homo sapiens; details: 3 μM Compound B, 1 μM ATRA or combination, microarray 48 hr, fold relative to the DMSO control group
Protocol: Gene expression from cells treated with ATRA single agent and combination of ATRA and HDAC1/2i were assessed at 2 hrs and 48 hrs of treatment (FIG. 12A). […] A function analysis of the data using the Ingenuity IPA platform was performed by Qiagen; overlap is observed in the top hits between treatment groups.
Genes that statistically increase over 2-fold relative to the DMSO control were mapped on a Venn diagram (FIG. 12B).
Neuroblastoma cell line SK-N-BE(2) cells were treated with 3 μM Compound B, 1 μM ATRA, or a combination of both at 37° C. over 2 hours (FIG. 12A) or 48 hours (FIG. 12B) and compared to the solvent (DMSO) control.

AKT and c-RAF = assay: Levels of AKT and c-RAF; assay type: cell-based; details: SK-N-BE2 cells; 3 days in culture
Protocol: The levels of AKT and c-RAF were assessed following treatment (SK-N-BE2 cells; 3 days in culture) with DMSO (control), Compound B alone, ATRA alone, and Compound B in combination with ATRA. Activated AKT is increased by ATRA and reduced in the combination setting with Compound B. Compound B as a single agent, and in combination with ATRA, decreases cRAF phosphorylation at residue Ser259.

Wnt signaling pathway = assay: Levels of Wnt-related signaling molecules; assay type: cell-based; details: SK-N-BE2 cells; 3 days in culture
Protocol: The levels of Wnt-related signaling molecules were assessed following treatment (SK-N-BE2 cells; 3 days in culture) with DMSO (control), Compound B alone, ATRA alone, and Compound B in combination with ATRA. b-catenin, the key signaling molecule in the Wnt pathway, is decreased by the Compound B and ATRA combination. Activated p-LRP is decreased after Compound B single agent treatment. Disheveled (Dvl) 2 & 3 is reduced by Compound B and ATRA combination treatment. Naked2 is increased by Compound B as a single agent and in combination with ATRA. Axin1 is decreased by Compound B as a single agent and in combination with ATRA.

neuroblastoma cells [4] = assay: Morphology changes / dendrite outgrowth by inverted microscope; assay type: cell-based; details: 3, 5 and 7 days
Protocol: Cells were cultured for 3, 5, and 7 days with the indicated treatments. Images were captured on an inverted microscope.

neuroblastoma cells [5] = assay: Histone acetylation in neuroblastoma cells by western blot; assay type: cell-based; details: western blot at 24 hours
neuroblastoma cells [6] = assay: Cell cycle analysis (Click-iT EdU and FxCycle PI/RNase staining); assay type: cell-based; details: 7 days, with ATRA
Protocol: Cells were cultured for 7 days with the indicated treatments and then stained with the Invitrogen Click-iT EdU kit and the Invitrogen FxCycle […] kits to assess frequency of cells in each stage of the cell cycle. […] The effect is enhanced by Compound B in a dose dependent manner.
In combination with ATRA, the effect on p21 is enhanced at concentrations that induce gene expression changes consistent with differentiation. At 7 days of treatment, combination effects are observed on the cell cycle, with a decreasing frequency of s-phase cells and an increasing sub-G1 population (FIG. 6B). […] EDU is increased in cells in s-phase while PI intensity indicates relative levels of DNA. Using these metrics, we illustrate the frequency of cells in the indicated states of the cell cycle.

SK-N-BE(2) cells [7] = assay: Caspase activity (Promega Caspase3/7 Glo assay); assay type: cell-based
Protocol: (§1) Cells were cultured for 48 hours at the indicated concentration of drug, and then cell viability was measured by Promega CellTiter Glo assay and caspase activity was measured by Promega Caspase3/7 Glo assay. […] Anti-tumor activity is evident at 3 μM of treatment.

SK-N-BE(2) cells [8] = assay: Cell viability (Promega CellTiter Glo assay); assay type: cell-based
Protocol: as §1

For `Nc1ccc(-c2cccs2)cc1NC(=O)c1ccc2c(c1)cc(C1CC1)n2CCN1CCOCC1` [Compound B, N-(2-amino-5-(thiophen-2-yl)phenyl)-2-cyclopropyl-1-(2-morpholinoethyl)-1H-indole-5-carboxamide], the “neuroblastoma cell growth in long term growth assay” value (neuroblastoma cells [1]; 1 μM of exposure, single agent, FIG. 11) was “reduced neuroblastoma cell growth”, the “growth of ATRA-resistant colonies” value (neuroblastoma cells [1]; combination with ATRA, 15-25 days) was “strongly suppressed” and the “proliferation, single agent” value (neuroblastoma cells [2]) was “can suppress proliferation similar to ATRA”. For the same compound, the NF-M staining (NF-M) was “general increase in NF-M staining”, the p21 level (SK-N-BE2 cells) was “enhanced” and the “Gene Expression Change, ACSL3” value (SK-N-BE(2) cells [3]) was 2.23. For the same compound, the “Gene Expression Change, ATP7A” value (SK-N-BE(2) cells [3]) was 1.98, the “Gene Expression Change, CDKN1A” value (SK-N-BE(2) cells [3]) was 1.93 and the “Gene Expression Change, CRABP2” value (SK-N-BE(2) cells [3]) was 1.18. The “Gene Expression Change, CTSH” value (SK-N-BE(2) cells [3]) was 3.05, the “Gene Expression Change, CYP26A1” value (SK-N-BE(2) cells [3]) was 0.99 and the “Gene Expression Change, CYP26B1” value (SK-N-BE(2) cells [3]) was 1.87. The “Gene Expression Change, DHRS3” value (SK-N-BE(2) cells [3]) was 1.03, the “Gene Expression Change, DUSP6” value (SK-N-BE(2) cells [3]) was 3.33 and the “Gene Expression Change, ETS1” value (SK-N-BE(2) cells [3]) was 3.00. For the same compound, the “Gene Expression Change, HSPA5” value (SK-N-BE(2) cells [3]) was 3.78, the “Gene Expression Change, IER3” value (SK-N-BE(2) cells [3]) was 2.33 and the “Gene Expression Change, NFKBIZ” value (SK-N-BE(2) cells [3]) was 1.95. For the same compound, the “Gene Expression Change, PCDH18” value (SK-N-BE(2) cells [3]) was 2.53, the “Gene Expression Change, PTGER2” value (SK-N-BE(2) cells [3]) was 1.41 and the “Gene Expression Change, RARB” value (SK-N-BE(2) cells [3]) was 1.14. For the same compound, the “Gene Expression Change, RET” value (SK-N-BE(2) cells [3]) was 1.34, the “cRAF phosphorylation at residue Ser259” value (AKT and c-RAF) was “decreases” and the Axin1 level (Wnt signaling pathway) was “decreased”. The Naked2 level (Wnt signaling pathway) was “increased”, the “activated p-LRP level” value (Wnt signaling pathway) was “decreased” and the “morphology / dendrite outgrowth” value (neuroblastoma cells [4]) was “does not alter morphology”. The histone acetylation (neuroblastoma cells [5]) was “induces histone acetylation”, the “effect on ATRA-mediated s-phase reduction and sub-G1 increase” value (neuroblastoma cells [6]) was “enhanced” and the “caspase 3/7 induction” value (SK-N-BE(2) cells [7]; 1 μM, 48 hours) was “Minimal”. For the same compound, the “concentrations at which Caspase 3/7 activity is increased” value (SK-N-BE(2) cells [7]; FIG. 2B, independent of ATRA) was at least 2 µM, the cell death (SK-N-BE(2) cells [8]; 1 μM, 48 hours) was “Minimal” and the anti-tumor activity (SK-N-BE(2) cells [8]; 3 μM, 48 hours) was “evident”. For the same compound, the “concentrations causing tumor cell death” value (SK-N-BE(2) cells [8]; FIG. 2A) was at least 2 µM.
